Measured values taken from patent publication US12679848B2, “Plasma kallikrein inhibitors” (Merck Sharp & Dohme LLC, priority 2020, dated 2026).

Assays:
Human plasma kallikrein = target: T1, Human plasma kallikrein (Homo sapiens, UniProt P03952); assay: Plasma Kallikrein Assay; format: biochemical; conditions: purified Human plasma kallikrein 0.5 nM, substrate Acetyl-K-P-R-AFC, HEPES pH 7.4; read-out: PKal IC50
T1 construct: yields a heavy chain (371 amino acids) and a light chain (248 amino acids); The active site of plasma kallikrein is contained in the light chain; purchased Enzyme Research Laboratories
In short: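 Purified human plasma kallikrein at 0.5 nM final with substrate Acetyl-K-P-R-AFC at […], in 50 mM HEPES pH 7.4, 150 mM NaCl, 5 mM CaCl2, 0.1% PEG 8000, at rt or 37° C after enzyme-inhibitor equilibration. IC50 from four-parameter logistic fit of fluorescence rate; Ki via Cheng-Prusoff.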

human factor XIa = human factor XIa (Homo sapiens, UniProt P03951); assay: Factor XIa Assay; format: biochemical; conditions: human factor XIa 0.04 nM, substrate GPR-AFC, 30 min pre-incubation, 25° C., pH 7.4; read-out: FXIa IC50
Sequence of human factor XIa (P03951 388-625 limits assumed): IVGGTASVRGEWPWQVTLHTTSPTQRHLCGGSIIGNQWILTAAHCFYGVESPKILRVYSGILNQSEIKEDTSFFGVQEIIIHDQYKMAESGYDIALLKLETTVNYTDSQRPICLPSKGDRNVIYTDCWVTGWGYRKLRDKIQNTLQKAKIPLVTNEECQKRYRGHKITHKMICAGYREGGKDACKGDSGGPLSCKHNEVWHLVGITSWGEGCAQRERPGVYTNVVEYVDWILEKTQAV
Sequence of human factor XIa (P03951 19-387 partner limits assumed): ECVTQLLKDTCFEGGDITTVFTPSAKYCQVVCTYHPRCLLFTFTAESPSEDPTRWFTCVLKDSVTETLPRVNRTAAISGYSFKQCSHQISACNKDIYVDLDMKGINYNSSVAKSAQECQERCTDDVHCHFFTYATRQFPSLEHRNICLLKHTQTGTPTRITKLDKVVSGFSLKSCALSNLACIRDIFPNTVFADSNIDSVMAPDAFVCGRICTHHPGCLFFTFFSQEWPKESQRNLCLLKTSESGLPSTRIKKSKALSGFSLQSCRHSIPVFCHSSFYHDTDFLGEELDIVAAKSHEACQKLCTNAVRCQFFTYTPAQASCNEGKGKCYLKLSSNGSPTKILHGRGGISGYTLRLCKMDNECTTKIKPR

T1 sequence (P03952 391-638 limits assumed): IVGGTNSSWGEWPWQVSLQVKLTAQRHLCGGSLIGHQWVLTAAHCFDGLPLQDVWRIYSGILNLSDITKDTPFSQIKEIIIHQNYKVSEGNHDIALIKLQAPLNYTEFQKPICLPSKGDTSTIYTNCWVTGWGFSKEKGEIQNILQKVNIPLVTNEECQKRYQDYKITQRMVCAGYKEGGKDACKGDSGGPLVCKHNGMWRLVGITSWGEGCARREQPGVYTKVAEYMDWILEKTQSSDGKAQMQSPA
T1 sequence (P03952 20-390 partner limits assumed): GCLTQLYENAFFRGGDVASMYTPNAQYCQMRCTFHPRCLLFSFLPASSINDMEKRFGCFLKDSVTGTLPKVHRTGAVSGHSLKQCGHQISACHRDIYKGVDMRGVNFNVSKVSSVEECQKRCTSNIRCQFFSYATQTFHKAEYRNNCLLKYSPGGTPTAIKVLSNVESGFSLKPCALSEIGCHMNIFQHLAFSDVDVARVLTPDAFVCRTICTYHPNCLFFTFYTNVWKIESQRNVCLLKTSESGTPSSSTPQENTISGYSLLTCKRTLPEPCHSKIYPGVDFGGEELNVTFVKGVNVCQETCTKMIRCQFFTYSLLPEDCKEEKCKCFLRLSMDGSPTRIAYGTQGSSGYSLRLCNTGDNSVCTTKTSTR

Row | Structure (SMILES) | IC50 (Human plasma kallikrein) [nM] | IC50 (human factor XIa) [nM]
1 | Cc1ccc(C)c(-n2ncc(C(=O)N3CCC[C@@]4(C3)OC(=O)Nc3ccc(Cl)c(F)c34)c2N)c1 [Example 87, (R)-1'-(5-Amino-1-(2,5-dimethylphenyl)-1H-pyrazole-4-carbonyl)-6-chloro-5-fluorospiro[benzo[d][1,3]oxazine-4,3'-piperidin]-2(1H)-one] | 26.4 | 1170
2 | Nc1c(C(=O)N2CCC[C@@]3(C2)OC(=O)Nc2ccc(Cl)c(F)c23)cnn1-c1ccccc1OC(F)F [Example 90, (R)-1'-(5-Amino-1-(2-(difluoromethoxy)phenyl)-1H-pyrazole-4-carbonyl)-6-chloro-5-fluorospiro[benzo[d][1,3]oxazine-4,3'-piperidin]-2(1H)-one] | 6.6 | 215
3 | COC(=O)c1ccc(-n2ncc(C(=O)N3CCC[C@@]4(C3)OC(=O)Nc3ccc(Cl)c(F)c34)c2N)c(OC)c1 [Example 92, Methyl (R)-4-(5-amino-4-(6-chloro-5-fluoro-2-oxo-1,2-dihydrospiro[benzo[d][1,3]oxazine-4,3'-piperidine]-l'-carbonyl)-1H-pyrazol-1-yl)-3-methoxybenzoate] | 13.2 | 1710
4 | COc1ccc(Cl)cc1-n1ncc(C(=O)N2CCC[C@@]3(C2)OC(=O)Nc2ccc(Cl)c(F)c23)c1N [Example 94, (R)-1'-(5-Amino-1-(5-chloro-2-methoxyphenyl)-1H-pyrazole-4-carbonyl)-6-chloro-5-fluorospiro[benzo[d][1,3]oxazine-4,3'-piperidin]-2(1H)-one] | 11.8 | 1290
5 | Nc1c(C(=O)N2CCC[C@@]3(C2)OC(=O)Nc2ccc(Cl)c(F)c23)cnn1-c1ccccc1C1CC1 [Example 95, (R)-1'-(5-Amino-1-(2-cyclopropylphenyl)-1H-pyrazole-4-carbonyl)-6-chloro-5-fluorospiro[benzo[d][1,3]oxazine-4,3'-piperidin]-2(1H)-one] | 10 | 305
6 | Nc1c(C(=O)N2CCC[C@@]3(C2)OC(=O)Nc2ccc(Cl)c(F)c23)cnn1-c1ccccc1OC1CCC1 [Example 97, (R)-1'-(5-Amino-1-(2-cyclobutoxyphenyl)-1H-pyrazole-4-carbonyl)-6-chloro-5-fluorospiro[benzo[d][1,3]oxazine-4,3'-piperidin]-2(1H)-one] | 8 | 1290
7 | CC1(c2ccccc2-n2ncc(C(=O)N3CCC[C@@]4(C3)OC(=O)Nc3ccc(Cl)c(F)c34)c2N)CC1 [Example 98, (R)-1'-(5-Amino-1-(2-(1-methylcyclopropyl)phenyl)-1H-pyrazole-4-carbonyl)-6-chloro-5-fluorospiro[benzo[d][1,3]oxazine-4,3'-piperidin]-2(1H)-one] | 8.4 | 219
8 | Nc1c(C(=O)N2CCC[C@@]3(C2)OC(=O)Nc2ccc(Cl)c(F)c23)cnn1-c1ccnc2c(F)cccc12 [Example 104, (R)-1'-(5-Amino-1-(8-fluoroquinolin-4-y1)-1H-pyrazole-4-carbonyl)-6-chloro-5-fluorospiro[benzo[d][1,3]oxazine-4,3'-piperidin]-2(1H)-one] | 9.5 | 562

Next, values leading:

Row | IC50 (Human plasma kallikrein) [nM] | IC50 (human factor XIa) [nM] | Structure (SMILES)
9 | 47 | 1690 | Cc1ccc(F)cc1-n1ncc(C(=O)N2CCC[C@@]3(C2)OC(=O)Nc2ccc(Cl)c(F)c23)c1N [Example 88, (R)-1'-(5-Amino-1-(5-fluoro-2-methylpheny1)-1H-pyrazole-4-carbonyl)-6-chloro-5-fluorospiro[benzo[d][1,3]oxazine-4,3'-piperidin]-2(1H)-one]
10 | 1.6 | 162 | Nc1c(C(=O)N2CCC[C@@]3(C2)OC(=O)Nc2ccc(Cl)c(F)c23)cnn1-c1ccccc1OC1CC1 [Example 89, (R)-1'-(5-Amino-1-(2-cyclopropoxyphenyl)-1H-pyrazole-4-carbonyl)-6-chloro-5-fluorospiro[benzo[d][1,3]oxazine-4,3'-piperidin]-2(1H)-one]
11 | 5.8 | 525 | Nc1c(C(=O)N2CCC[C@@]3(C2)OC(=O)Nc2ccc(Cl)c(F)c23)cnn1-c1cccc2c1OC(F)(F)O2 [Example 91, (R)-1'-(5-Amino-1-(2,2-difluorobenzo[d][1,3]dioxol-4-y1)-1H-pyrazole-4-carbonyl)-6-chloro-5-fluorospiro[benzo[d][1,3]oxazine-4,3'-piperidin]-2(1H)-one]
12 | 10.4 | 418 | Nc1c(C(=O)N2CCC[C@@]3(C2)OC(=O)Nc2ccc(Cl)c(F)c23)cnn1-c1c(F)cccc1F [Example 93, (R)-1'-(5-Amino-1-(2,6-difluorophenyl)-1H-pyrazole-4-carbonyl)-6-chloro-5-fluorospiro[benzo[d][1,3]oxazine-4,3'-piperidin]-2(1H)-one]
13 | 1.1 | 1370 | Nc1c(C(=O)N2CCC[C@@]3(C2)OC(=O)Nc2ccc(Cl)c(F)c23)cnn1-c1ccccc1Oc1ccccc1 [Example 96, (R)-1'-(5-Amino-1-(2-phenoxyphenyl)-1H-pyrazole-4-carbonyl)-6-chloro-5-fluorospiro[benzo[d][1,3]oxazine-4,3'-piperidin]-2(1H)-one]
14 | 13.3 | 1080 | Nc1c(C(=O)N2CCC[C@@]3(C2)OC(=O)Nc2ccc(Cl)c(F)c23)cnn1-c1ccccc1OCC(F)(F)F [Example 99, (R)-1'-(5-Amino-1-(2-(2,2,2-trifluoroethoxy)phenyl)-1H-pyrazole-4-carbonyl)-6-chloro-5-fluorospiro[benzo[d][1,3]oxazine-4,3'-piperidin]-2(1H)-one]
15 | 9 | 375 | COc1cc(F)ccc1-n1ncc(C(=O)N2CCC[C@@]3(C2)OC(=O)Nc2ccc(Cl)c(F)c23)c1N [Example 100, (R)-1'-(5-Amino-1-(4-fluoro-2-methoxyphenyl)-1H-pyrazole-4-carbonyl)-6-chloro-5-fluorospiro[benzo[d][1,3]oxazine-4,3'-piperidin]-2(1H)-one]
16 | 30.6 | 1310 | COc1c(F)cc(F)cc1-n1ncc(C(=O)N2CCC[C@@]3(C2)OC(=O)Nc2ccc(Cl)c(F)c23)c1N [Example 101, (R)-1'-(5-Amino-1-(3,5-difluoro-2-methoxyphenyl)-1H-pyrazole-4-carbonyl)-6-chloro-5-fluorospiro[benzo[d][1,3]oxazine-4,3'-piperidin]-2(1H)-one]
17 | 3.8 | 12 | Nc1c(C(=O)N2CCC[C@@]3(C2)OC(=O)Nc2ccc(Cl)c(F)c23)cnn1-c1c(Cl)cncc1Cl [Example 102, (R)-1'-(5-Amino-1-(3,5-dichloropyridin-4-y1)-1H-pyrazole-4-carbonyl)-6-chloro-5-fluorospiro[benzo[d][1,3]oxazine-4,3'-piperidin]-2(1H)-one]
18 | 10.1 | 610 | Nc1c(C(=O)N2CCC[C@@]3(C2)OC(=O)Nc2ccc(Cl)c(F)c23)cnn1-c1ccnc2ccccc12 [Example 103, (R)-1'-(5-Amino-1-(quinolin-4-yl)-1H-pyrazole-4-carbonyl)-6-chloro-5-fluorospiro[benzo[d][1,3]oxazine-4,3'-piperidin]-2(1H)-one]
19 | 13.2 | 421 | Cc1cnccc1-n1ncc(C(=O)N2CCC[C@@]3(C2)OC(=O)Nc2ccc(Cl)c(F)c23)c1N [Example 105, (R)-1'-(5-Amino-1-(3-methylpyridin-4-y1)-1H-pyrazole-4-carbony1)-6-chloro-5-fluorospiro[benzo[d][1,3]oxazine-4,3'-piperidin]-2(1H)-one]
